Data taken from the NIST ThermoML archive (doi:10.1016/j.fluid.2006.05.032).

Assay: xn = mol fraction of the nth substance listed
Conditions: Liquid, Vibrating tube method, x1 = 1

CCCO [propan-1-ol] + Cc1ccccc1
mass density [kg/m3]
Conditions | 293.15 K | 303.15 K | 313.15 K | 323.15 K | 333.15 K | 343.15 K | 353.15 K
100 kPa | 803.5 | 795.2 | 787.6 | 779.3 | 770.5 | 761 | 752.2
5000 kPa | 807.3 | 799.2 | 791.9 | 783.7 | 775.4 | 766 | 757.6
10000 kPa | 810.9 | 802.9 | 795.9 | 788 | 780 | 770.7 | 762.7
15000 kPa | 814.3 | 806.7 | 799.7 | 792 | 784.3 | 775.3 | 767.6
20000 kPa | 817.7 | 810.1 | 803.3 | 795.8 | 788.4 | 779.6 | 772.1
25000 kPa | 821 | 813.6 | 806.8 | 799.7 | 792 | 783.7 | 776.3
30000 kPa | 824 | 816.7 | 810.2 | 803.2 | 795.7 | 787.6 | 780.4
35000 kPa | 827 | 819.8 | 813.5 | 806.6 | 799.2 | 791.2 | 784.1
40000 kPa | 829.9 | 822.9 | 816.6 | 809.9 | 802.6 | 794.7 | 787.7
45000 kPa | 832.7 | 825.8 | 819.7 | 813 | 805.9 | 798.3 | 791.8
50000 kPa | 835.4 | 828.8 | 822.7 | 816.1 | 809.1 | 801.6 | 795.1
55000 kPa | 838.1 | 831.6 | 825.5 | 819 | 812.3 | 804.6 | 798.5
60000 kPa | 840.7 | 834.2 | 828.3 | 821.8 | 815.2 | 807.7 | 801.7
65000 kPa | 843.2 | 837 | 831 | 824.6 | 818.1 | 810.6 | 805
